Ends that are not written are not given here.

One experiment relates to Staphylococcus aureus. It counts as cell-based. The procedure: (§1) The antimicrobial activity of the peptides was tested against gram-positive Staphylococcus aureus and gram-negative Escherichia coli by a broth microdilution method, as described previously. Briefly, a colony of bacteria was incubated in culture medium (10 mL) and incubated at 37 °C for 14–18 h. After an aliquot (50 μL) of this culture was transferred to fresh culture medium (10 mL), each bacterial strain was grown to reach the mid-logarithmic phase. A total of 100 μL of bacteria (2 × 10^6 CFU/mL) were added to 96-well microtiter plates in the presence of serial dilutions of peptides. […] Measurements were repeated at least three times in triplicate.

For a further experiment, the system named is Escherichia coli. It counts as cell-based. As to the method: as §1

Consider RIIDLLWRVRRAQKAKFVTVWVR [PMAP-PA], for which the “MIC S. aureus” value against Staphylococcus aureus is 8 to 16 µM. In addition, in the experiment with Escherichia coli, the “MIC E. coli” value was in the range of 8 to 16 µM. Take RIIDLLWRVRRGQKGKFVTVWVR [PMAP-PG]: the “MIC E. coli” value against Escherichia coli is 8 to 16 µM. Turning to RIIDLLWRVRRPQKPKFVTVWVR [PMAP-23], the “MIC S. aureus” value in the experiment with Staphylococcus aureus was 2 to 4 µM. Also, in the experiment with Escherichia coli, the “MIC E. coli” value fell in the range of 2 to 4 µM.
